Common to all, as to type: biochemical
The target in test [1] is T1, dipeptidyl peptidase 1 (DPP1, cathepsin C) (Canis lupus, UniProt O97578).
T1 construct: gene CTSC; native DPP1 in dog white blood cell lysate
Briefly: fluorogenic H-Gly-Arg-AMC cleavage assay in crude white blood cell lysate. The conditions noted are these: read-out: DPP1 / Dog.

For test [2], the target named is T2, dipeptidyl peptidase 1 (DPP1, cathepsin C) (Mus musculus, UniProt P97821).
T2 construct: gene Ctsc; recombinant mouse DPP1
T2 sequence (P97821 25-134): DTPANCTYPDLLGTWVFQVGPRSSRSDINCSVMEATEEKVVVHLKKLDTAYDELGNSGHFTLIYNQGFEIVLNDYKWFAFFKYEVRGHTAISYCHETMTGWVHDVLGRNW
T2 sequence (P97821 231-462): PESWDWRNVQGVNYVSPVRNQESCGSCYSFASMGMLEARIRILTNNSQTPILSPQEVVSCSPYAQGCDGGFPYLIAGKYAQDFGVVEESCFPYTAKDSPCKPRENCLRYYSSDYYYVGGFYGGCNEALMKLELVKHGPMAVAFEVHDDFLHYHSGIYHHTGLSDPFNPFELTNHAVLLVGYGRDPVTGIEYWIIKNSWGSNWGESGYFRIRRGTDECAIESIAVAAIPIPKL
Briefly: fluorogenic H-Gly-Arg-AMC cleavage assay with recombinant enzyme.

In test [3] the target is T3, dipeptidyl peptidase 1 (DPP1, cathepsin C) (Rattus norvegicus, UniProt P80067).
T3 construct: gene Ctsc; recombinant rat DPP1, proteolytically processed into mature form with cathepsin L
T3 sequence (P80067 25-134): as the sequence (P97821 25-134) above, with S23H, S24P, D27H, A35P, V42I, L54V, H59Y, R86K, H88S, T89R counted along it
T3 sequence (P80067 230-393): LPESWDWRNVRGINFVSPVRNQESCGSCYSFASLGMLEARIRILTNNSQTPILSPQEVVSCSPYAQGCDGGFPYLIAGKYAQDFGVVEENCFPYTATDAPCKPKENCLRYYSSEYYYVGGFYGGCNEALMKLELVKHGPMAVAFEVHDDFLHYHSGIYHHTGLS
T3 sequence (P80067 394-462): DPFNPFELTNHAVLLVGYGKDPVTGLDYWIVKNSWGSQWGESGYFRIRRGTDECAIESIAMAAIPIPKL
The description is as above.

T1 sequence (O97578 1-109): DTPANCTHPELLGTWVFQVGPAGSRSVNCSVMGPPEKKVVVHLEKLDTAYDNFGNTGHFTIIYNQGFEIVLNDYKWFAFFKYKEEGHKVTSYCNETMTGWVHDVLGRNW
T1 sequence (O97578 200-435): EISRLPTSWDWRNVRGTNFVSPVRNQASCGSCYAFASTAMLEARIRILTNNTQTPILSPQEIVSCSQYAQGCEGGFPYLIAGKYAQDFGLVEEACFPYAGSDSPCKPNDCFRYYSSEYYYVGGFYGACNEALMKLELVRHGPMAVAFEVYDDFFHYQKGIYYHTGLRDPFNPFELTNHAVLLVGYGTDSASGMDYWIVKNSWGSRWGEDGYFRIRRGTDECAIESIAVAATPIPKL

As to `Cn1c(=O)oc2ccc(-c3ccc(C[C@@H](C#N)NC(=O)[C@@H]4CNCCCO4)cc3)cc21` [brensocatib], the IC50 stood at 38.1 nM in test [1], 24.1 nM in test [2] and 51.1 nM in test [3].

The record behind these values is article PMC11251990 (Frontiers in Pharmacology, 2024).
